Results taken from patent US8778401B2, “Mesoporous material excipients for poorly aqueous soluble ingredients” (Agency for Science, Technology and Research, priority 2008, dated 2014).
One block for each compound: values may come before it.

How the values were obtained:
Format in all cases: physicochemical
[1] = Dissolution of spray-dried indomethacin with SBA-15 in pH 6.8 phosphate buffer; settings: 900 mL of pH 6.8 phosphate buffer
Description: FIG. 15 illustrates dissolution profiles of spray-dried indomethacin with SBA-15 in powder form and tablet form, and a comparison with raw indomethacin crystal. (900 mL of pH 6.8 phosphate buffer, 50 mg spray-dried indomethacin with SBA-15 in powder form or tablet with 800 mg cornstarch at 1 ton press, raw crystal form is 25 mg).

[2] = Storage stability of the amorphous form at 40° C./75% RH (XRD); settings: same conditions (40° C./75% RH) for just one week
Description: The storage stability was tested in severe storage condition of 75% relative humidity and temperature of 40° C., denoted as 40° C./75% RH.
A broad peak at 2-θ of 15-30° is typical in diffraction patterns of X-ray amorphous silica.
The amorphous state of these drugs formed by spray drying with mesoporous materials is stable after being subject to stress conditions of 40° C./75% RH for at least six months.

[3] = Dissolution test of ibuprofen formulations (USP dissolution tester, online UV); settings: 900 mL 0.1N HCl at 37° C., 100 rpm
Description: The suspension was spray-dried in a Buchi Spray Drier B290. The inlet temperature was set to 81° C. and the outlet temperature was ˜50° C. The pump speed was set to “20”. […] Stirring speed is 100 rpm. Sample was taken by auto sampling system at interval of 5 min. UV reading was taken at wavelength 222 nm.
The dissolution profile was measured using VK7010 (Varian Co) USP dissolution tester with flow cell online UV-vis analysis system. Stirring rate is 100 rpm and vessel temperature is set at 37° C.
The dissolution is performed using the same method as in Example 1.

dissolution within 15 min [1]: 25%
Compound: COc1ccc2c(c1)c(CC(=O)O)c(C)n2C(=O)c1ccc(Cl)cc1 [commercial indomethacin, indomethacin]

stability of amorphous form after storage [2]: re-crystallized
Compound: COc1ccc2c(c1)c(CC(=O)O)c(C)n2C(=O)c1ccc(Cl)cc1 [indomethacin]

Dissolution test data 15 min ([3]; 25 mg ibuprofen or equivalent, 15 min): 17.5%
Dissolution test data 30 min ([3]; 25 mg ibuprofen or equivalent, 30 min): 25.6%
Dissolution test data 45 min ([3]; 25 mg ibuprofen or equivalent, 45 min): 35.6%
dissolved in 15 min ([3]; powder form, 15 min): 17.5%
dissolved within 15 min, tablet form ([3]; tablet with 0.8 g cornstarch, 1 ton press, 15 min): 16.4%
Compound: CC(C)Cc1ccc(C(C)C(=O)O)cc1 (stereo not shown) [pure ibuprofen crystal, ibuprofen]
